# Experimental data from US8084602B2, “Porphyrin derivatives and their use in photodynamic therapy” (Destiny Pharma Limited, priority 2002, dated 2011).
# Like-named read-outs stand apart in the source and are kept apart here.
# Legend:
# [1] = test system: Escherichia coli (strain ATCC 25922); assay: Initial screening: growth inhibition after white light illumination; type: cell-based; conditions: Escherichia coli
# Description: (§1) The toxic effects of exemplary compounds of the invention against two bacterial strains, the Gram negative bacterium Escherichia coli (strain ATCC 25922) and the Gram positive bacterium Staphylococcus aureus (methicillin-resistant strain ATTC BAA-44), were evaluated by measuring the extent of growth inhibition (bacteriostatic effect) and growth […] (cytocidal effect) in the dark and upon light exposure. Initial compound screening was undertaken using white light [390-740 nm] (150 mW/cm^2) for various timepoints of a concentration of 3 μM (see Table 1). Further experiments were undertaken on those compounds identified from this initial screen using a light source emitting light at a wavelength between 417-420 nm at 15.2 mW/cm^2, 13.68 J/cm^2 (Waldmann Eclairage SA, France) (see Table 20.
# (§2) The following protocol was used for the initial screening of the exemplary compounds (Table 1) (see Reddi et al., 2002, Photochem. Photobiol. 75(5):462-470): • (i) E. coli and S. aureus cells were grown overnight on brain heart infusion agar, resuspended in brain heart infusion broth, harvested by centrifugation (3000 g for 15 minutes) and washed once with phosphate buffered saline (PBS) at pH 7.4 consisting 2.7 mM KCl and 0.14 M NaCl. • (ii) The cells were then resuspended in PBS to an optical density at 650 nm of 0.7, which corresponds to a density of 10^8 to 10^9 cells/ml. • (iii) Next, the cells were incubated in PBS in the dark for 5 minutes with 3.0 μM of the compound to be tested. • (iv) After dark incubation, cells were illuminated with white light (wavelength: 390 to 740 nm) (150 mW/cm^2) for up to 30 minutes. During illumination, the cells were kept at 37° C. and magnetically stirred. • (v) Finally, treated and untreated (control) cells were diluted in brain heart infusion broth and maintained at […] while the absorbance of the suspension at 650 nm was monitored at predetermined time points for determining growth curves.
# (§3) The percent of growth inhibition in the treated cells was calculated by the following equation: [1−(Ax−A0)/(Ac−A0)]×100 where Ax Ac are the absorbances measured after 3 hours incubation, for the treated and control cell suspensions, respectively, and A0 represents the initial absorbance.
# [2] = test system: Staphylococcus aureus (methicillin-resistant strain ATTC BAA-44); assay: as above; type: cell-based; conditions: Staphylococcus aureus
# Description: as §1, §2, §3
# S. aureus ATCC BAA-44 = assay: Photodynamic activity against MRSA on ex vivo porcine skin; type: cell-based, Staphylococcus aureus; conditions: 10 μM applied 10 minutes, 15 minutes irradiation, mean of three target areas
# Description: Excised porcine skin was cut into 3(4)×3(4) cm^2 pieces under sterile conditions and incubated in 70% ethanol for 5 minutes to reduce background of colonised bacteria. After three washing steps in PBS, the skin pieces were fixed in petri dishes with Hepes-Agar. The epidermis (stratum corneum) was then inoculated with S. aureus ATCC BAA-44 (˜10^8, Volume: 100 μl) and the skin surface dried under laminar flow cabinet until visible dry. The regions of interest were determined using a “pap” pen (1 cm^2 diameter). A sterile solution of Compound 10 (10 μM) was applied onto the skin for 10 minutes. Post application, the ex vivo porcine skin was placed under the Waldmann light source 236 and illuminated for 15 min (15.2 mW/cm^2, 13.7 J/cm^2). A colony forming unit assay was performed to determine viable bacterial cell number immediately after irradiation using a sterile cotton rod to remove bacteria from the stratum corneum. The sterile cotton rod was moistened in sampling solution (0.1% Tween80 in 0.0075 M phosphate buffer pH 7.9) before swabbing the skin surface (3 times) and vortexed in sampling solution before undertaking serial dilutions to determine the bacterial recovery.
smiles,measurement,setting,value
"CN(C)CCC[N+](C)(C)CCCOc1ccc(-c2c3nc(cc4ccc([nH]4)c(-c4ccc(OCCC[N+](C)(C)CCCN(C)C)cc4)c4nc(cc5ccc2[nH]5)C=C4)C=C3)cc1.[Cl-].[Cl-] [Compound 8, 5,15-bis-(4-{3-[(3-Dimethylamino-propyl)-dimethylammonio]-propyloxy}-phenyl)-porphyrin dichloride]",inhibition at 3 µM,"[1]; ATCC25922, 5 min, read-out: Growth inhibition (%), E. coli, 5 min incubation, illumination time 5 min",100%
same,inhibition at 3 µM,"[1]; ATCC25922, read-out: Growth inhibition (%), E. coli, 5 min incubation, illumination time 0 min",23%
same,inhibition at 3 µM,"[1]; ATCC25922, read-out: Growth inhibition (%), E. coli, 5 min incubation, illumination time 1 min",69%
same,inhibition at 3 µM,"[1]; ATCC25922, read-out: Growth inhibition (%), E. coli, 5 min incubation, illumination time 10 min",100%
same,inhibition at 3 µM,"[1]; ATCC25922, read-out: Growth inhibition (%), E. coli, 5 min incubation, illumination time 15 min",100%
same,inhibition at 3 µM,"[1]; ATCC25922, read-out: Growth inhibition (%), E. coli, 5 min incubation, illumination time 30 min",100%
same,inhibition at 3 µM,"[2]; BAA44, 5 min, read-out: Growth inhibition (%), S. aureus, 5 min incubation, illumination time 5 min",100%
same,inhibition at 3 µM,"[2]; BAA44, read-out: Growth inhibition (%), S. aureus, 5 min incubation, illumination time 0 min",80%
same,inhibition at 3 µM,"[2]; BAA44, read-out: Growth inhibition (%), S. aureus, 5 min incubation, illumination time 1 min",99%
same,inhibition at 3 µM,"[2]; BAA44, read-out: Growth inhibition (%), S. aureus, 5 min incubation, illumination time 10 min",100%
same,inhibition at 3 µM,"[2]; BAA44, read-out: Growth inhibition (%), S. aureus, 5 min incubation, illumination time 15 min",100%
same,inhibition at 3 µM,"[2]; BAA44, read-out: Growth inhibition (%), S. aureus, 5 min incubation, illumination time 30 min",100%
"C[N+](C)(C)CCCOc1ccc(-c2c3nc(cc4ccc([nH]4)c(-c4ccc(OCCC[N+](C)(C)C)cc4)c4nc(cc5ccc2[nH]5)C=C4)C=C3)cc1.[Cl-].[Cl-] [Compound 10, 5,15-bis-[4-(3-Trimethylammonio-propyloxy)-phenyl]-porphyrin dichloride]",growth reduction,S. aureus ATCC BAA-44,3.2 log10
